Laboratory results published in EPA's CvTdb concentration-time database.

Key:
[1] = tested on: Rat; experiment: concentration in plasma after dosing
[2] = tested on: Mouse; experiment: concentration in plasma after dosing; settings: dosed: 2,4-Dichlorophenoxyacetic acid, Male, B6C3F1
[3] = tested on: Rat; experiment: concentration in brain after dosing

C=CCc1ccc(OC)c(OC)c1 [Methyleugenol]
concentration in plasma [ng/mL], [1], dosed: Methyleugenol, 37 mg/kg
Settings | Female | Male
0.25 h, iv, F344 | 7960 | 7180
0.5 h, iv, F344 | 2470 | 2440
0.5 h, oral, F344/N | 27.3 | 282
0.75 h, iv, F344 | 1100 | 3230
1 h, oral, F344/N | – | 243
1.5 h, iv, F344 | 684 | 610
1.5 h, oral, F344/N | – | 39.6
2 h, oral, F344/N | – | 17.4
2 min, iv, F344 | 57800 | 32200
2 min, oral, F344/N | 29.2 | 35.1
3 h, iv, F344 | 215 | 232
3 h, oral, F344/N | – | 12.4
4 h, oral, F344/N | – | 17.8
5 h, oral, F344/N | – | 15.6
5 min, iv, F344 | 27400 | 26700
5 min, oral, F344/N | 108 | 81.2
6 h, iv, F344 | – | 175
8 h, oral, F344/N | 17.8 | 6.71
10 min, oral, F344/N | 345 | 369
20 min, oral, F344/N | 267 | 233

O=C(O)COc1ccc(Cl)cc1Cl [2,4-Dichlorophenoxyacetic acid]
[1], dosed: 2,4-Dichlorophenoxyacetic acid, Male, Sprague-Dawley
Settings | concentration in plasma [ng/mL]
0.25 h, 2.0 mg/kg, iv | 12200
0.25 h, 7.0 mg/kg, oral | 9670
0.5 h, 2.0 mg/kg, iv | 7630
0.5 h, 7.0 mg/kg, oral | 4670
0.75 h, 2.0 mg/kg, iv | 4750
2 h, 2.0 mg/kg, iv | 376
2 h, 7.0 mg/kg, oral | 6510
2.5 h, 2.0 mg/kg, iv | 2040
2.5 min, 2.0 mg/kg, iv | 24800
2.5 min, 7.0 mg/kg, oral | 9340
3 h, 2.0 mg/kg, iv | 863
3 h, 7.0 mg/kg, oral | 3570
3.5 h, 2.0 mg/kg, iv | 858
4 h, 2.0 mg/kg, iv | 482
4 h, 7.0 mg/kg, oral | 7740
5 h, 7.0 mg/kg, oral | 4720
6 h, 7.0 mg/kg, oral | 472
10 min, 2.0 mg/kg, iv | 14100
10 min, 7.0 mg/kg, oral | 12500

concentration in plasma [ng/mL], [2]
Settings | 1.0 mg/kg | 2.0 mg/kg | 5.2 mg/kg
0.25 h, iv | 6980 | – | –
0.25 h, oral | 1210 | 5300 | 16000
0.5 h, oral | 3030 | 3480 | 16800
1 h, iv | 2730 | – | –
2 h, oral | 486 | 2900 | 16000
2.5 h, iv | 951 | – | –
2.5 min, iv | 7580 | – | –
2.5 min, oral | 2070 | 3200 | –
3 h, oral | 470 | 1950 | 12800
4 h, iv | 1200 | – | –
4 h, oral | 164 | – | 6840
5 min, iv | 7190 | – | –
5 min, oral | 3130 | 5970 | 11300
6 h, iv | 235 | – | –
6 h, oral | 123 | 390 | 1250
8 h, oral | 120 | – | –
10 h, oral | – | – | 459
10 min, iv | 7290 | – | –
10 min, oral | 1360 | 5500 | –

CC(C)[C@]12CC(=O)[C@H](C)[C@H]1C2 [alpha-Thujone]
dosed: alpha-Thujone, oral
Settings | concentration in brain, [3] [ng/g] | concentration in plasma, [1] [ng/mL]
0.5 h, 25 mg/kg, Female, Harlan Sprague Dawley | 801 | 189
0.5 h, 25 mg/kg, Male, Harlan Sprague Dawley | 689 | 407
0.5 h, 50 mg/kg, Female, Harlan Sprague Dawley | 1350 | 474
0.5 h, 50 mg/kg, Male, Harlan Sprague Dawley | 2470 | 710
1.5 h, 25 mg/kg, Male, Harlan Sprague Dawley | 299 | 156
1.5 h, 50 mg/kg, Female, Harlan Sprague Dawley | 966 | 491
1.5 h, 50 mg/kg, Male, F344 | 952 | 294
1.5 h, 50 mg/kg, Male, Harlan Sprague Dawley | 677 | 116
2 min, 25 mg/kg, Female, Harlan Sprague Dawley | 77.8 | 29.7
2 min, 25 mg/kg, Male, Harlan Sprague Dawley | 21 | 45.2
2 min, 50 mg/kg, Female, Harlan Sprague Dawley | 44.8 | 109
2 min, 50 mg/kg, Male, Harlan Sprague Dawley | 40.6 | 11.9
3 h, 25 mg/kg, Female, Harlan Sprague Dawley | 390 | 104
3 h, 25 mg/kg, Male, Harlan Sprague Dawley | 122 | 134
3 h, 50 mg/kg, Female, Harlan Sprague Dawley | 517 | 214
3 h, 50 mg/kg, Male, Harlan Sprague Dawley | 1130 | 255
5 min, 25 mg/kg, Male, Harlan Sprague Dawley | 414 | 146
5 min, 50 mg/kg, Female, F344 | 2010 | 1480
5 min, 50 mg/kg, Female, Harlan Sprague Dawley | 508 | 427
6 h, 25 mg/kg, Female, Harlan Sprague Dawley | 270 | 84.7
6 h, 25 mg/kg, Male, Harlan Sprague Dawley | 77.1 | 119
6 h, 50 mg/kg, Female, F344 | 437 | 146
6 h, 50 mg/kg, Female, Harlan Sprague Dawley | 648 | 209
6 h, 50 mg/kg, Male, Harlan Sprague Dawley | 518 | 174
10 min, 25 mg/kg, Male, Harlan Sprague Dawley | 689 | 323
10 min, 50 mg/kg, Female, F344 | 4550 | 1200
10 min, 50 mg/kg, Female, Harlan Sprague Dawley | 1030 | 547
10 min, 50 mg/kg, Male, F344 | 6400 | 2200
10 min, 50 mg/kg, Male, Harlan Sprague Dawley | 6510 | 2050
12 h, 25 mg/kg, Female, Harlan Sprague Dawley | 12.7 | 3.31
12 h, 25 mg/kg, Male, Harlan Sprague Dawley | – | 16.4
12 h, 50 mg/kg, Female, Harlan Sprague Dawley | 48.5 | 24.3
12 h, 50 mg/kg, Male, Harlan Sprague Dawley | 31.7 | 11.6

dosed: 76231-76-0, 3.0 mg/kg, iv, F344
Settings | concentration in brain, [3] [ng/g] | concentration in plasma, [1] [ng/mL]
2 h, Female | 16.8 | 4.41
2.5 h, Female | 11.6 | 2.79
3 h, Female | 11.6 | –
4 h, Male | 26.3 | –
12 h, Male | – | 3.95

O=S(=O)([O-])C(F)(F)C(F)(F)C(F)(F)C(F)(F)C(F)(F)C(F)(F)F.[K+] [Perfluorohexane-1-sulphonic acid – potassium salt]
dosed: Perfluorohexane-1-sulphonic acid – potassium salt, oral
Settings | concentration in brain [ng/g] | concentration in plasma [ng/mL]
[1], 0.25 h, 4 mg/kg, Male, F344 | – | 9900
[1], 1 h, 4 mg/kg, Male, F344 | – | 23300
[1], 1 h, 16 mg/kg, Male, F344 | – | 73500
[1], 3 h, 4 mg/kg, Male, F344 | – | 23900
[1], 6 h, 4 mg/kg, Male, F344 | – | 31000
[1], 12 h, 4 mg/kg, Male, F344 | – | 30800
[1], 24 h, 4 mg/kg, Male, F344 | – | 27400
[1], 192 h, 4 mg/kg, Male, F344 | – | 16200
[1], 528 h, 4 mg/kg, Male, F344 | – | 11300
[1], 864 h, 4 mg/kg, Male, F344 | – | 2510
[1], 1200 h, 4 mg/kg, Male, F344 | – | 7070
[3], 3 h, 16 mg/kg, Female, F344 | 1890 | –
[3], 3 h, 16 mg/kg, Female, Harlan Sprague Dawley | 1170 | –
[3], 6 h, 16 mg/kg, Female, F344 | 1490 | –
[3], 6 h, 16 mg/kg, Female, Harlan Sprague Dawley | 1070 | –
[3], 12 h, 16 mg/kg, Female, F344 | 2110 | –
[3], 12 h, 16 mg/kg, Female, Harlan Sprague Dawley | 951 | –
[3], 24 h, 16 mg/kg, Female, F344 | 1460 | –
[3], 24 h, 16 mg/kg, Female, Harlan Sprague Dawley | 731 | –
[3], 48 h, 16 mg/kg, Female, Harlan Sprague Dawley | 515 | –
[3], 192 h, 16 mg/kg, Female, F344 | 847 | –
[3], 528 h, 16 mg/kg, Female, F344 | 523 | –

c1ccncc1 [Pyridine]
concentration in plasma [ng/mL], [1], dosed: Pyridine
Settings | iv | oral
0.05 h, 5 mg/kg, Male, F344 | 5520 | –
0.25 h, 5 mg/kg, Male, F344 | 2430 | –
0.25 h, 10 mg/kg, Male, F344 | 4140 | –
0.5 h, 5 mg/kg, Male, F344 | 3550 | 2630
0.5 h, 25 mg/kg, Male, F344 | – | 16500
1 h, 5 mg/kg, Male, F344 | – | 2900
1 h, 25 mg/kg, Female, Harlan Sprague-Dawley | – | 18800
2 h, 5 mg/kg, Male, F344 | 2390 | 2920
2 h, 10 mg/kg, Male, F344 | 185 | –
2 h, 25 mg/kg, Female, Harlan Sprague-Dawley | – | 15700
2 min, 10 mg/kg, Male, F344 | 4390 | 716
4 h, 5 mg/kg, Male, F344 | 2090 | 2610
4 h, 25 mg/kg, Male, F344 | – | 15000
5 min, 5 mg/kg, Male, F344 | – | 1700
5 min, 10 mg/kg, Male, F344 | 2280 | –
5 min, 25 mg/kg, Male, F344 | – | 5570
6 h, 5 mg/kg, Male, F344 | 1640 | 1550
6 h, 25 mg/kg, Male, F344 | – | 15300
8 h, 5 mg/kg, Male, F344 | 1620 | 1070
8 h, 25 mg/kg, Female, Harlan Sprague-Dawley | – | 15400
9 h, 5 mg/kg, Male, F344 | – | 1280
10 min, 10 mg/kg, Male, F344 | – | 3820
11 h, 5 mg/kg, Male, F344 | – | 659
14 h, 25 mg/kg, Female, Harlan Sprague-Dawley | – | 10000
20 h, 25 mg/kg, Male, F344 | – | 2910
20 min, 10 mg/kg, Female, Harlan Sprague-Dawley | – | 2720
20 min, 10 mg/kg, Male, F344 | 3160 | –
24 h, 25 mg/kg, Male, F344 | – | 1640
40 h, 100 mg/kg, Male, F344 | – | 11600
40 min, 10 mg/kg, Female, Harlan Sprague-Dawley | – | 2560
50 min, 10 mg/kg, Male, F344 | 3220 | –
